The subject of one series is NI-1^R (S282T). In words: Susceptibility of NI-1 resistant replicon cell line. The format is cell-based, hepatitis C virus. Particulars: NI-1^R (S282T) versus Huh-9-13. In general terms: In antiviral work, replicon cells carry a viral genome segment that copies itself.
Series [1] relates to parental replicon cellular line, Huh-9-13. The series can be described thus: Susceptibility of parental replicon cellular line. The format is cell-based, hepatitis C virus. The note with it: for Fold change in EC50: Parental cell line (Table 4); for EC50: Hepatitis C virus, read-out: EC50 ± SD.
Another series relates to NM107^R (S282T). The series can be described thus: Susceptibility of NM107 resistant replicon cell line. The format is cell-based, hepatitis C virus. The note with it: NM107^R (S282T) versus Huh-9-13.
Another series has as its system BILN 2061^R (D168V). The series can be described thus: Susceptibility of BILN 2061 resistant replicon cell line. The format is cell-based, hepatitis C virus. The note with it: BILN 2061^R (D168V) versus Huh-9-13.
The test system of the next series is NNI-1^R (M414T). In words: Susceptibility of NNI-1 resistant replicon cell line. The format is cell-based, hepatitis C virus. Particulars: NNI-1^R (M414T) versus Huh-9-13.
The test system of another series is VX-950^R (A156T). In words: Susceptibility of VX-950 resistant replicon cell line. The format is cell-based, hepatitis C virus. The note with it: VX-950^R (A156T) versus Huh-9-13.
Series [2] concerns the molecule itself. In words: Western blot of transfected cell lysate, treated with ACH-806. Background: Immunoblotting shows a protein as a band on a membrane.
Series [3] deals with the molecule itself. In words: anti-NS4A immunoprecipitation and immunoblot of replicon cells or NS4A-transfected cells; dimer promoted by the compound ACH-806.

Turning to `C[C@@]1(O)[C@H](O)[C@@H](CO)O[C@H]1n1ccc(N)nc1=O` [NM107], the “Fold change in EC50” value is on record as greater than 68.7 in the series on NI-1^R (S282T), 1.0 in series [1] and 30.7 in the series on NM107^R (S282T).
As a reminder, the EC50 is the concentration that produces a half-maximal response. As to `CCC[C@H](NC(=O)[C@@H]1[C@H]2CCC[C@H]2CN1C(=O)[C@@H](NC(=O)[C@@H](NC(=O)c1cnccn1)C1CCCCC1)C(C)(C)C)C(=O)C(=O)NC1CC1` [VX-950], the “Fold change in EC50” value is reported as 2.9 in the series with BILN 2061^R (D168V), 1.0 in series [1], 0.3 with NM107^R (S282T) and 2.3 with NNI-1^R (M414T). For the same molecule, the EC50 in series [1] came out at 610 nM.
In the case of `COc1ccc2c(O[C@@H]3C[C@H]4C(=O)N[C@]5(C(=O)O)C[C@H]5/C=C\CCCCC[C@H](NC(=O)OC5CCCC5)C(=O)N4C3)cc(-c3csc(NC(C)C)n3)nc2c1` [BILN 2061], the “Fold change in EC50” value is 1.4 in the series with NI-1^R (S282T); greater than 100 with VX-950^R (A156T); greater than 100 with BILN 2061^R (D168V); 1.0 in series [1]; 1.1 in the series with NM107^R (S282T); 2.8 in the series on NNI-1^R (M414T). Moreover, the EC50 in series [1] was 1.2 nM.

B1: NS4A-cFLAG (HCV NS4A (1b) with C-terminal FLAG antibody tag) (other)
chain: STWVLVGGVLAALAAYCLTTGSVVIVGRIILSGKPAIIPDREVLYREFDEMEECDYKDDDDK
notes: also called NS4A-FLAG; product of pCl-neo-NS4A-cFlag
With B1, the binding result in series [2] is given as “binds”.

B2: HCV NS4A protein (other)
chain: STWVLVGGVLAALAAYCLTTGSVVIVGRIILSGKPAIIPDREVLYREFDEMEEC
notes: also called hepatitis C virus NS4A; monomer of p14
On to B2, for which the binding result in series [3] was “binds”.

The values above are taken from US20100093018A1, “CELLS […] PROTEINS AND ASSAYS USING SUCH CELLS” (ACHILLION PHARMACEUTICALS, INC., priority 2007, published 2010).
